This is an account of results in patent US7217730B2, “Method for the use of pyranoindole derivatives to treat infection with Hepatitis C virus” (Wyeth, priority 2002, dated 2007).

Usually IC50 stands for the concentration that inhibits the measured activity by half.

The assay deals with T1, NS5B from the BK strain (genotype 1b) (Hepatitis C virus genotype 1b, UniProt P26663).
T1 construct: NS5B from the BK strain (genotype 1b) is expressed in E. coli as a protein in which the 21 C-terminal amino acids are replaced; made in house; host or cells: E. coli
As to the kind of experiment: Hepatitis C polymerase inhibition, NS5B BK strain, 33P-GTP filter assay. The assay is classed as biochemical. The settings on record: Table 1A; for inhibition at 20 µM: 20 μM compound, read-out: HCV pol % inh at 20 μM; for IC50: NS5B BK strain, read-out: HCV pol BK IC50. The method, boiled down:
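E. coli-expressed NS5B (BK, genotype 1b) with the 21 C-terminal residues replaced by a linker-His6 tag was preincubated with compound for 15 min at room temperature. It then extended a hairpin-primed heteropolymeric RNA (~3 nM, ~760 nt product) with α-[33P]-GTP for 2 h at 22–25° C. The reaction was stopped with EDTA, and incorporated label was counted on filters.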

Molecules are shown by their SMILES. Some results are limits rather than exact numbers.

T1 sequence (P26663 2420-2989): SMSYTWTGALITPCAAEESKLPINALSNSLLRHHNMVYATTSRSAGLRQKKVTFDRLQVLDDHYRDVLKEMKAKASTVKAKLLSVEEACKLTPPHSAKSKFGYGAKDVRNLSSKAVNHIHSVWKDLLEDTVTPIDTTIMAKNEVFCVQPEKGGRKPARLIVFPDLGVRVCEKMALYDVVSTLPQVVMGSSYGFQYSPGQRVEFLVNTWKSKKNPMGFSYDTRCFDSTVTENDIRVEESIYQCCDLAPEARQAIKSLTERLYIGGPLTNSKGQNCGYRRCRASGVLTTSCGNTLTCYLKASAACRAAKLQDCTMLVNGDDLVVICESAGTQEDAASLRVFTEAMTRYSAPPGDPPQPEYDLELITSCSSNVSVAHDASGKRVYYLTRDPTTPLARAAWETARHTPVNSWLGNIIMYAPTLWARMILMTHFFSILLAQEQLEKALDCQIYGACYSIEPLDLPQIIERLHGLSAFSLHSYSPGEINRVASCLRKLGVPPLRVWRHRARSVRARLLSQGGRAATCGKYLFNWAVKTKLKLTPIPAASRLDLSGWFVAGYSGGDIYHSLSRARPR

On to `CCCC1(CC(=O)O)OCCc2c1[nH]c1cccc(-c3ccc(SC)cc3)c21` (centres unmarked) [Example 46, (5-[4-(methylthio)phenyl]-1-propyl-1,3,4,9-tetrahydropyrano[3,4-b]indol-1-yl)acetic acid], for which the inhibition at 20 µM turned out to be 15% and the IC50 was more than 20 µM. The corresponding values for `Cc1cc(F)c2[nH]c3c(c2c1C#N)CCOC3(CC(=O)O)c1ccccc1` (centres unmarked) [Example 171, (5-cyano-8-fluoro-6-methyl-1-phenyl-1,3,4,9-tetrahydropyrano[3,4-b]indol-1-yl)acetic acid] are 3% and more than 10 µM. The corresponding values for `O=C(O)CC1(c2ccoc2)OCCc2c1[nH]c1c(Br)cccc21` (centres unmarked) [Example 88, [8-bromo-1-(3-furyl)-1,3,4,9-tetrahydropyrano[3,4-b]indol-1-yl]acetic acid] are 30% and more than 20 µM. Take `O=C(O)CC1(c2ccc(C(=O)O)cc2)OCCc2c1[nH]c1c(Cl)cc(Cl)cc21` (centres unmarked) [Example 106, 4-[1-(carboxymethyl)-6,8-dichloro-1,3,4,9-tetrahydropyrano[3,4-b]indol-1-yl]benzoic acid]: the inhibition at 20 µM was determined as 71% and the IC50 worked out at 2.3 µM. For the molecule `C/C=C/CCC1(CC(=O)O)OCCc2c1[nH]c1c(Cl)cc(Cl)cc21` (centres unmarked) [Example 104, {6,8-dichloro-1-[(3E)-pent-3-enyl]-1,3,4,9-tetrahydropyrano[3,4-b]indol-1-yl}acetic acid], the inhibition at 20 µM is less than 5% and the IC50 is more than 20 µM. As for `CCCCC1(CC(=O)O)OCCc2c1[nH]c1c(Br)ccc(Br)c21` (centres unmarked) [Example 213, (5,8-dibromo-1-butyl-1,3,4,9-tetrahydropyrano[3,4-b]indol-1-yl)acetic acid], the inhibition at 20 µM came to 87% and the IC50 came to 0.28 µM. Regarding `C/C=C/CCC1(CC(=O)O)OCCc2c1[nH]c1cccc(C#N)c21` (centres unmarked) [Example 60, {5-cyano-1-[(3E)-pent-3-enyl]-1,3,4,9-tetrahydropyrano[3,4-b]indol-1-yl}acetic acid], the inhibition at 20 µM was found to be 15% and the IC50 was more than 20 µM.

Turning to `CCCC1(CC(=O)O)OCCc2c1[nH]c1cccc(-c3ccccc3Cl)c21` (centres unmarked) [Example 44, [5-(2-chlorophenyl)-1-propyl-1,3,4,9-tetrahydropyrano[3,4-b]indol-1-yl]acetic acid], the inhibition at 20 µM was found to be 41% and the IC50 is more than 20 µM. The corresponding values for `CCCC1(CC(=O)O)OCCc2c1[nH]c1c(F)ccc(-c3ccc(C(F)(F)F)cc3)c21` (centres unmarked) [Example 150, {8-fluoro-1-propyl-5-[4-(trifluoromethyl)phenyl]-1,3,4,9-tetrahydropyrano[3,4-b]indol-1-yl}acetic acid] are less than 37% and 9 µM. The corresponding values for `CC(C)CCCC1(CC(=O)O)OCCc2c1[nH]c1c(Cl)ccc(Cl)c21` (centres unmarked) [Example 54, [5,8-dichloro-1-(4-methylpentyl)-1,3,4,9-tetrahydropyrano[3,4-b]indol-1-yl]acetic acid] are 6% and more than 20 µM.

Regarding `CC1(CC(=O)O)OCCc2c1[nH]c1cc(Cl)cc(Cl)c21` (centres unmarked) [Example 114, (5,7-dichloro-1-methyl-1,3,4,9-tetrahydropyrano[3,4-b]indol-1-yl)acetic acid], the inhibition at 20 µM amounted to 57% and the IC50 was more than 20 µM. Consider `CCC1(CC(=O)O)OCCc2c1[nH]c1c(Br)cccc21` (centres unmarked) [Example 81, (8-bromo-1-ethyl-1,3,4,9-tetrahydropyrano[3,4-b]indol-1-yl)acetic acid], for which the inhibition at 20 µM turned out to be 27% and the IC50 is more than 20 µM. `CC1(CC(=O)O)OCCc2c1[nH]c1ccc(Cl)c(Cl)c21` (centres unmarked) [Example 107, (5,6-dichloro-1-methyl-1,3,4,9-tetrahydropyrano[3,4-b]indol-1-yl)acetic acid]: the inhibition at 20 µM is 50% and the IC50 turned out to be 19.1 µM. With `CCCC1(CC(=O)O)OCCc2c1[nH]c1c(F)cc(F)c(Br)c21` (centres unmarked) [Example 190, (5-bromo-6,8-difluoro-1-propyl-1,3,4,9-tetrahydropyrano[3,4-b]indol-1-yl)acetic acid], the inhibition at 20 µM was found to be 94% and the IC50 worked out at 0.2 µM. Regarding `CCCC1(CC(=O)O)OCCc2c1[nH]c1c(F)ccc(-c3ccccc3)c21` (centres unmarked) [Example 147, (8-fluoro-5-phenyl-1-propyl-1,3,4,9-tetrahydropyrano[3,4-b]indol-1-yl)acetic acid], the inhibition at 20 µM worked out at 34%. For the molecule `CCCC1(CC(=O)O)OCCc2c1[nH]c1cccc(-c3cccc(Cl)c3)c21` (centres unmarked) [Example 49, [5-(3-chlorophenyl)-1-propyl-1,3,4,9-tetrahydropyrano[3,4-b]indol-1-yl]acetic acid], the inhibition at 20 µM is less than 5% and the IC50 was more than 20 µM.

Turning to `CCCCC1(CC(=O)O)OCCc2c1[nH]c1c(F)cc(F)c(C#N)c21` (centres unmarked) [Example 196, (1-butyl-5-cyano-6,8-difluoro-1,3,4,9-tetrahydropyrano[3,4-b]indol-1-yl)acetic acid], the inhibition at 20 µM is 77% and the IC50 amounted to 1.2 µM. The corresponding values for `N#Cc1c(F)cc(F)c2[nH]c3c(c12)CCOC3(CC(=O)O)c1ccoc1` (centres unmarked) [Example 197, [5-cyano-6,8-difluoro-1-(3-furyl)-1,3,4,9-tetrahydropyrano[3,4-b]indol-1-yl]acetic acid] are 55% and more than 5 µM. The matching figures for `CCC1(CC(=O)O)OCCc2c1[nH]c1c(Cl)cc(Cl)c(Cl)c21` (centres unmarked) [Example 155, (5,6,8-trichloro-1-ethyl-1,3,4,9-tetrahydropyrano[3,4-b]indol-1-yl)acetic acid]: 84% and 0.47 µM.

As to `N#Cc1cccc2[nH]c3c(c12)CCOC3(CC(=O)O)c1ccoc1` (centres unmarked) [Example 61, [5-cyano-1-(3-furyl)-1,3,4,9-tetrahydropyrano[3,4-b]indol-1-yl]acetic acid], the inhibition at 20 µM was determined as 18% and the IC50 is more than 20 µM.

Take `CCC1(CC(=O)O)OCCc2c1[nH]c1c(F)cc(C)c(Br)c21` (centres unmarked) [Example 164, (5-bromo-1-ethyl-8-fluoro-6-methyl-1,3,4,9-tetrahydropyrano[3,4-b]indol-1-yl)acetic acid]: the inhibition at 20 µM was determined as 77% and the IC50 came out at 2 µM. The matching figures for `O=C(O)CC1(c2ccc(C(=O)O)cc2)OCCc2c1[nH]c1c(Cl)ccc(Cl)c21` (centres unmarked) [Example 57, 4-[1-(carboxymethyl)-5,8-dichloro-1,3,4,9-tetrahydropyrano[3,4-b]indol-1-yl]benzoic acid]: 56% and 3 µM.

Consider `CCC1(CC(=O)O)OCCc2c1[nH]c1cccc(Br)c21` (centres unmarked) [Example 21, (5-bromo-1-ethyl-1,3,4,9-tetrahydro-pyrano[3,4-b]indol-1-yl)acetic acid], for which the inhibition at 20 µM came to 58% and the IC50 is more than 20 µM. In the case of `CCCC1(CC(=O)O)OCCc2c1[nH]c1c(C)ccc(C#N)c21` (centres unmarked) [Example 1, (5-cyano-8-methyl-1-propyl-1,3,4,9-tetrahydro-pyrano[3,4-b]indol-1-yl)acetic acid], the IC50 turned out to be 0.5 µM. With `C/C=C/CCC1(CC(=O)O)OCCc2c1[nH]c1c(Cl)cc(Cl)c(Cl)c21` (centres unmarked) [Example 159, {5,6,8-trichloro-1-[(3E)-pent-3-enyl]-1,3,4,9-tetrahydropyrano[3,4-b]indol-1-yl}acetic acid], the inhibition at 20 µM was found to be 36% and the IC50 is more than 20 µM. The corresponding values for `Cc1cc(Cl)c2[nH]c3c(c2c1C#N)CCOC3(CC(=O)O)C(C)C` (centres unmarked) [Example 184, (8-chloro-5-cyano-1-isopropyl-6-methyl-1,3,4,9-tetrahydropyrano[3,4-b]indol-1-yl)acetic acid] are 39% and more than 5 µM. For `CCCC1(CC(=O)O)OCCc2c1[nH]c1c(Br)ccc(Br)c21` (centres unmarked) [Example 211, (5,8-dibromo-1-propyl-1,3,4,9-tetrahydropyrano[3,4-b]indol-1-yl)acetic acid], the inhibition at 20 µM turned out to be 89% and the IC50 was 0.13 µM. As to `CC(C)C1(CC(=O)O)OCCc2c1[nH]c1c(F)cc(F)c(C#N)c21` (centres unmarked) [Example 198, (5-cyano-6,8-difluoro-1-isopropyl-1,3,4,9-tetrahydropyrano[3,4-b]indol-1-yl)acetic acid], the inhibition at 20 µM was 82% and the IC50 is more than 5 µM.

As to `CCCC1(CC(=O)O)OCCc2c1[nH]c1c(C)ccc(C(=O)NC)c21` (centres unmarked) [Example 224, (8-methyl-5-methylcarbamoyl-1-propyl-1,3,4,9-tetrahydropyrano[3,4-b]indol-1-yl)acetic acid], the IC50 was more than 20 µM.

As to `CCCCC1(CC(=O)O)OCCc2c1[nH]c1cccc(Cl)c21` (centres unmarked) [Example 69, (1-butyl-5-chloro-1,3,4,9-tetrahydropyrano[3,4-b]indol-1-yl)acetic acid], the IC50 was found to be 5.5 µM. For `CCC1(CC(=O)O)OCCc2c1[nH]c1c(C)ccc(C)c21` (centres unmarked) [Example 138, (1-ethyl-5,8-dimethyl-1,3,4,9-tetrahydropyrano[3,4-b]indol-1-yl)acetic acid], the inhibition at 20 µM worked out at 38% and the IC50 is more than 20 µM. The matching figures for `CCCC1(CC(=O)O)OCCc2c1[nH]c1c(-c3ccc(C)cc3)cccc21` (centres unmarked) [Example 90, [8-(4-methylphenyl)-1-propyl-1,3,4,9-tetrahydropyrano[3,4-b]indol-1-yl]acetic acid]: 2% and more than 20 µM. `Cc1ccc(F)c2c3c([nH]c12)C(CC(=O)O)(C(C)C)OCC3` (centres unmarked) [Example 143, (5-fluoro-1-isopropyl-8-methyl-1,3,4,9-tetrahydropyrano[3,4-b]indol-1-yl)acetic acid]: the inhibition at 20 µM was 56% and the IC50 came out at 16.5 µM.
